Assay results from the NIST ThermoML archive (doi:10.1021/je100610v).
± gives the expanded uncertainty stated by the source.

Test: xn = mol fraction of the nth substance listed
Details: 101 kPa, Liquid; for speed of sound: Pulse-echo method

## ClCCCCCCCl [1,6-dichlorohexane] + CCCCCCC
292.49 K, x1 = 0.3004
  speed of sound: 1199.1 ± 1.1 m/s
292.56 K, x1 = 0.6998
  speed of sound: 1276.9 ± 1.6 m/s
292.79 K, x1 = 0.4999
  speed of sound: 1235 ± 1.3 m/s
292.8 K, x1 = 0.8001
  speed of sound: 1297 ± 1.8 m/s
292.8 K, x1 = 0.8957
  speed of sound: 1316.3 ± 2 m/s
292.81 K, x1 = 0.1999
  speed of sound: 1181.6 ± 0.93 m/s
292.81 K, x1 = 0.6004
  speed of sound: 1255 ± 1.5 m/s
292.91 K, x1 = 0.4
  speed of sound: 1215.3 ± 1.2 m/s
292.92 K, x1 = 0.1014
  speed of sound: 1167.6 ± 0.83 m/s
293.01 K, x1 = 1
  speed of sound: 1337.8 ± 2.1 m/s
293.15 K, x1 = 0.0998
  mass density: 722.22 ± 0.86 kg/m3
293.15 K, x1 = 0.1999
  mass density: 760.97 ± 0.79 kg/m3
293.15 K, x1 = 0.2998
  mass density: 799.74 ± 0.73 kg/m3
293.15 K, x1 = 0.4001
  mass density: 838.66 ± 0.69 kg/m3
293.15 K, x1 = 0.5001
  mass density: 877.38 ± 0.66 kg/m3
293.15 K, x1 = 0.6002
  mass density: 916.12 ± 0.66 kg/m3
293.15 K, x1 = 0.7
  mass density: 954.46 ± 0.69 kg/m3
293.15 K, x1 = 0.8002
  mass density: 992.78 ± 0.74 kg/m3
293.15 K, x1 = 0.9001
  mass density: 1030.7 ± 0.97 kg/m3
293.15 K, x1 = 1
  mass density: 1068.33 ± 1.3 kg/m3
298.15 K, x1 = 0.0998
  mass density: 717.96 ± 0.87 kg/m3
298.15 K, x1 = 0.1999
  mass density: 756.72 ± 0.8 kg/m3
298.15 K, x1 = 0.2998
  mass density: 795.42 ± 0.74 kg/m3
298.15 K, x1 = 0.4001
  mass density: 834.33 ± 0.7 kg/m3
298.15 K, x1 = 0.5001
  mass density: 873.04 ± 0.67 kg/m3
298.15 K, x1 = 0.6002
  mass density: 911.75 ± 0.67 kg/m3
298.15 K, x1 = 0.7
  mass density: 950.12 ± 0.69 kg/m3
298.15 K, x1 = 0.8002
  mass density: 988.4 ± 0.74 kg/m3
298.15 K, x1 = 0.9001
  mass density: 1026.11 ± 0.95 kg/m3
298.15 K, x1 = 1
  mass density: 1063.61 ± 1.2 kg/m3
298.16 K, x1 = 0.6998
  speed of sound: 1256.2 ± 1.6 m/s
298.16 K, x1 = 0.8957
  speed of sound: 1297.1 ± 2 m/s
298.17 K, x1 = 0.3004
  speed of sound: 1176.1 ± 1 m/s
298.17 K, x1 = 0.4999
  speed of sound: 1214.5 ± 1.3 m/s
298.18 K, x1 = 1
  speed of sound: 1319.7 ± 2.1 m/s
298.2 K, x1 = 0.4
  speed of sound: 1195 ± 1.2 m/s
298.2 K, x1 = 0.8001
  speed of sound: 1277.5 ± 1.8 m/s
298.21 K, x1 = 0.1014
  speed of sound: 1145.5 ± 0.82 m/s
298.21 K, x1 = 0.1999
  speed of sound: 1159.4 ± 0.92 m/s
298.21 K, x1 = 0.6004
  speed of sound: 1235.2 ± 1.5 m/s
303.14 K, x1 = 0.4999
  speed of sound: 1195.5 ± 1.3 m/s
303.14 K, x1 = 0.6998
  speed of sound: 1237.9 ± 1.6 m/s
303.14 K, x1 = 0.8957
  speed of sound: 1279.5 ± 2 m/s
303.15 K, x1 = 0.3004
  speed of sound: 1156.1 ± 1 m/s
303.15 K, x1 = 1
  speed of sound: 1302.4 ± 2.1 m/s
  mass density: 1058.87 ± 1.2 kg/m3
303.15 K, x1 = 0.0998
  mass density: 713.61 ± 0.88 kg/m3
303.15 K, x1 = 0.1999
  mass density: 752.3 ± 0.81 kg/m3
303.15 K, x1 = 0.2998
  mass density: 791 ± 0.75 kg/m3
303.15 K, x1 = 0.4001
  mass density: 830 ± 0.71 kg/m3
303.15 K, x1 = 0.5001
  mass density: 868.59 ± 0.68 kg/m3
303.15 K, x1 = 0.6002
  mass density: 907.23 ± 0.68 kg/m3
303.15 K, x1 = 0.7
  mass density: 945.63 ± 0.7 kg/m3
303.15 K, x1 = 0.8002
  mass density: 983.71 ± 0.75 kg/m3
303.15 K, x1 = 0.9001
  mass density: 1021.49 ± 0.93 kg/m3
303.19 K, x1 = 0.4
  speed of sound: 1175.5 ± 1.2 m/s
303.19 K, x1 = 0.8001
  speed of sound: 1259.6 ± 1.8 m/s
303.2 K, x1 = 0.1014
  speed of sound: 1124.7 ± 0.82 m/s
303.2 K, x1 = 0.1999
  speed of sound: 1138.9 ± 0.91 m/s
303.2 K, x1 = 0.6004
  speed of sound: 1216.8 ± 1.5 m/s
308.12 K, x1 = 0.6998
  speed of sound: 1219.8 ± 1.6 m/s
308.12 K, x1 = 0.8957
  speed of sound: 1261.9 ± 2 m/s
308.13 K, x1 = 0.3004
  speed of sound: 1136.2 ± 1 m/s
308.13 K, x1 = 0.4999
  speed of sound: 1176.5 ± 1.3 m/s
308.14 K, x1 = 1
  speed of sound: 1285 ± 2.1 m/s
308.15 K, x1 = 0.0998
  mass density: 709.34 ± 0.89 kg/m3
308.15 K, x1 = 0.1999
  mass density: 748.07 ± 0.82 kg/m3
308.15 K, x1 = 0.2998
  mass density: 786.58 ± 0.76 kg/m3
308.15 K, x1 = 0.4001
  mass density: 825.61 ± 0.71 kg/m3
308.15 K, x1 = 0.5001
  mass density: 864.37 ± 0.69 kg/m3
308.15 K, x1 = 0.6002
  mass density: 902.95 ± 0.68 kg/m3
308.15 K, x1 = 0.7
  mass density: 941.1 ± 0.71 kg/m3
308.15 K, x1 = 0.8002
  mass density: 979.09 ± 0.76 kg/m3
308.15 K, x1 = 0.9001
  mass density: 1016.82 ± 0.92 kg/m3
308.15 K, x1 = 1
  mass density: 1054.14 ± 1.2 kg/m3
308.17 K, x1 = 0.4
  speed of sound: 1156.1 ± 1.2 m/s
308.18 K, x1 = 0.1014
  speed of sound: 1104 ± 0.81 m/s
308.18 K, x1 = 0.6004
  speed of sound: 1198.3 ± 1.5 m/s
308.18 K, x1 = 0.8001
  speed of sound: 1241.7 ± 1.8 m/s
308.19 K, x1 = 0.1999
  speed of sound: 1118.6 ± 0.91 m/s
313.15 K, x1 = 0.0998
  mass density: 704.96 ± 0.9 kg/m3
313.15 K, x1 = 0.1999
  mass density: 743.68 ± 0.83 kg/m3
313.15 K, x1 = 0.2998
  mass density: 782.17 ± 0.77 kg/m3
313.15 K, x1 = 0.4001
  mass density: 821.26 ± 0.72 kg/m3
313.15 K, x1 = 0.5001
  mass density: 859.93 ± 0.7 kg/m3
313.15 K, x1 = 0.6002
  mass density: 898.61 ± 0.69 kg/m3
313.15 K, x1 = 0.7
  mass density: 936.7 ± 0.71 kg/m3
313.15 K, x1 = 0.8002
  mass density: 974.58 ± 0.76 kg/m3
313.15 K, x1 = 0.9001
  mass density: 1012.12 ± 0.9 kg/m3
313.15 K, x1 = 1
  mass density: 1049.39 ± 1.2 kg/m3
313.21 K, x1 = 0.3004
  speed of sound: 1116.2 ± 1 m/s
313.21 K, x1 = 0.6998
  speed of sound: 1201.4 ± 1.6 m/s
313.21 K, x1 = 0.8957
  speed of sound: 1244 ± 1.9 m/s
313.22 K, x1 = 0.4999
  speed of sound: 1157.3 ± 1.3 m/s
313.23 K, x1 = 1
  speed of sound: 1267.4 ± 2.1 m/s
313.25 K, x1 = 0.1014
  speed of sound: 1082.9 ± 0.81 m/s
313.26 K, x1 = 0.4
  speed of sound: 1136.5 ± 1.2 m/s
313.26 K, x1 = 0.8001
  speed of sound: 1223.6 ± 1.8 m/s
313.28 K, x1 = 0.1999
  speed of sound: 1098 ± 0.9 m/s
313.28 K, x1 = 0.6004
  speed of sound: 1179.5 ± 1.5 m/s
